The test system of test [1] is acetylcholine-induced bronchospasm. Briefly: Bronchorelaxation in vivo: acetylcholine-induced bronchoconstriction in Brown Norway rats, RL and Cdyn (C-3.2). The settings on record: inhaled 60 minutes before provocation; tiotropium 1 μg/kg; comparative example 11 1, 10 and 100 μg/kg. Also noted: species or system rat. The method, then: The bronchoconstriction model (see Hoymann H G. Lung function measurements in rodents in safety pharmacology studies. Front Pharmacol 2012; 3:156) used Male Brown Norway rats (Charles River, Sulzfeld, Germany; 10-12 weeks old) randomized to three treatment groups (comparative example 11, 1 μg/kg, 10 μg/kg, and 100 μg/kg; n=12-13), one positive control group (tiotropium 1 μg/kg; n=12), and one vehicle control group (n=17). Animals were treated with the inhaled test compounds 60 minutes before provocation. Comparative example 11, vehicle, or tiotropium were aerosolized using a micro feeding system and a dispersion nozzle operated with pressurized air. The aerosol concentration was determined by filter sampling with gravimetrical analysis and monitored continuously by a photometer. The lung-deposited doses were assessed from the inhalation dose (Raabe O G, Al-Bayati M A, Teague S V, Rasolt A. Regional Deposition of Inhaled Monodisperse Coarse and Fine Aerosol Particles in Small Laboratory Animals. The Annals of Occupational Hygiene 1988; 32:53-63.). […] After reaching a steady state in respiration, lung function of the spontaneously breathing animal was recorded as baseline values for ≥2 minutes; amongst other parameters, lung resistance (=RL) and dynamic compliance (=Cdyn) were used to assess bronchoconstriction. […]

Test [2] concerns thromboxane analog U46619 induced PAH in minipigs. The test can be described thus: Haemodynamics (PAP, BP) in the anesthetized thromboxane challenged PAH minipig after inhaled (nebulized) application (C-2.1). It is filed as in vivo, Göttingen minipig. To be noted: inhaled; Ventavis 10 μg/kg nominal dose; comparative example 11 10, 30 and 100 μg/kg nominal dose; 240 min observation interval. An outline of the steps: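 Anesthetized, ventilated Göttingen minipigs (2-6 kg) given continuous infusion (0.3-0.75 μg/kg/min) to raise mean PAP above 25 mmHg, dosing starting after a 30 min plateau. Compound in 1% DMSO/0.2% citric acid, pH 8, nebulized via Aeroneb Pro into the inspiratory arm (~7 min; stock 300 μg/kg). PAP by Swan-Ganz catheter, BP via carotid catheter.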

Test [3] concerns thromboxane analog U46619 induced PAH in minipigs with ODQ or L-NAME pretreatment. Briefly: PAH minipig model under oxidative stress / low NO (pretreatment by ODQ or L-NAME). It is filed as in vivo, Göttingen minipig. Also noted: PAP / BP: unit not given beside the values. The settings on record: for BP / PAP: Ventavis 10 μg/kg nominal dose inhaled. How it is done: To simulate conditions of oxidative stress or low NO concentrations as assumed to be present in different cardiovascular disorders, comparative example 11 was evaluated with and without pretreatment by ODQ (inhibitor of sGC) or L-NAME (NOS inhibitor). […] In contrast, the effects of Ventavis® under conditions of oxidative stress or low NO concentrations were not enhanced. In addition, also under these pathophysiological conditions the duration of action of comparative example 11 was much longer compared to Ventavis®.

For test [4], the system named is pulmonary vascular resistance (PVR). To be noted: inhaled, patients; cited from earlier work.

“And” between values parts separate entries of the source, which are not always exact repeats. Equal entries are not always repeated.

As for `C[N+]1(C)[C@@H]2C[C@@H](OC(=O)C(O)(c3cccs3)c3cccs3)C[C@H]1[C@@H]1O[C@@H]12` [tiotropium, reference compound], the “bronchodilatory efficacy (RL)” value in test [1] was “inhibited acetylcholine-induced bronchospasm”.

Turning to `CC#CCC(C)[C@H](O)/C=C/[C@@H]1[C@H]2C/C(=C/CCCC(=O)O)C[C@H]2C[C@H]1O` (stereo partly shown) [Ventavis, reference compound], in test [2], the duration of action result was “about 40 min”. In addition, the BP was 105.0 and 133.0 and 125.0 in test [3] (L-NAME pretreatment, Time 70); 106.0 and 131.0 and 123.0 in test [3] (L-NAME pretreatment, Time 80); 102.0 and 124.0 and 121.0 in test [3] (L-NAME pretreatment, Time 90); 101.0 and 124.0 and 117.0 in test [3] (L-NAME pretreatment, Time 100); 101.0 and 125.0 and 114.0 in test [3] (L-NAME pretreatment, Time 110); 97.0 and 103.0 and 92.0 in test [3] (ODQ pretreatment, Time 70). Further, the BP in test [3] (ODQ pretreatment, Time 80) is 98.0 and 105.0 and 92.0; in test [3] (ODQ pretreatment, Time 90), 100.0 and 104.0 and 92.0; in test [3] (ODQ pretreatment, Time 100), 101.0 and 104.0 and 93.0; in test [3] (ODQ pretreatment, Time 110) it was 103.0 and 94.0; in test [3] (without pretreatment, Time 70) it was 107.0 and 109.0 and 116.0; in test [3] (without pretreatment, Time 80), 102.0 and 110.0 and 113.0. In addition, the BP is 99.0 and 109.0 and 111.0 in test [3] (without pretreatment, Time 90); 98.0 and 106.0 and 108.0 in test [3] (without pretreatment, Time 100); 95.0 and 105.0 and 106.0 in test [3] (without pretreatment, Time 110). In addition, the PAP is 31.7 and 27.4 and 28.7 in test [3] (L-NAME pretreatment, Time 70); 41.2 and 33.5 and 29.7 in test [3] (L-NAME pretreatment, Time 80); 42.2 and 37.9 and 32.1 in test [3] (L-NAME pretreatment, Time 90); 41.5 and 39.6 and 38.9 in test [3] (L-NAME pretreatment, Time 100); 41.5 and 41.0 in test [3] (L-NAME pretreatment, Time 110); 33.6 and 26.4 and 25.9 in test [3] (ODQ pretreatment, Time 70). For the same compound, the PAP in test [3] (ODQ pretreatment, Time 80) is 37.4 and 32.8 and 32.1; in test [3] (ODQ pretreatment, Time 90), 38.5 and 37.5 and 38.2; in test [3] (ODQ pretreatment, Time 100), 38.8 and 40.6 and 39.2; in test [3] (ODQ pretreatment, Time 110), 39.3 and 39.5 and 40.0; in test [3] (without pretreatment, Time 70), 26.1 and 28.2 and 29.6; in test [3] (without pretreatment, Time 80), 34.7 and 36.7 and 37.4. Also, the PAP in test [3] (without pretreatment, Time 90) was 38.9 and 41.2; in test [3] (without pretreatment, Time 100) it was 37.9 and 39.2 and 41.9; in test [3] (without pretreatment, Time 110), 38.4 and 39.5 and 42.2. The “effect on PAP after pretreatment of ODQ or L-NAME” value in test [3] (inhaled, comparative example 11 30 μg/kg ND, Ventavis 10 μg/kg nominal dose) is recorded as “not enhanced”. Further, in test [4], the “duration of action on haemodynamics (PVR) in clinical studies” value is given as “about 60 min”.

Source of the values: patent US12138256B2, “Treatment of cardiopulmonary disorders” (Bayer Aktiengesellschaft, priority 2021, dated 2024).
